Experimental data: the OligoGym collection
Values joined by “and” are separate entries in the source; they are usually repeats but may differ in a detail not shown here. Identical values can stand only once. After the bases stand the sugars from the 5' end (letter, count) and the backbone: PS all phosphorothioate, else s phosphorothioate and o phosphodiester by linkage. Methylation of C is not given here. e = 2'-O-(2-methoxyethyl) (MOE); k = constrained ethyl (cEt); d = 2'-deoxy (DNA); m = 2'-O-methyl

Target: HSD17B13
Details: ASO, HepaRG

ATAAGGCCGATTCATG (sugars k3 d10 k3, PS)
target mRNA inhibition (1 µM): 38%

ATAAGTAGTCTGCCTG (sugars k3 d10 k3, PS)
target mRNA inhibition (1 µM): 43%

ATACGATGGAACAAAA (sugars k3 d10 k3, PS)
target mRNA inhibition (1 µM): 27%

ATACTGTCCCAGCATT (sugars k3 d10 k3, PS)
target mRNA inhibition (1 µM): 32%

ATACTTACCAATATGG (sugars k3 d10 k3, PS)
target mRNA inhibition (1 µM): 0%

ATAGAGTTGCACCGTT (sugars k3 d1 m1 d8 k3, PS)
target mRNA inhibition (1 µM): 59%

ATAGAGTTGCACCGTT (sugars k3 d9 k3 e1, PS)
target mRNA inhibition (1 µM): 71%

ATAGAGTTGCACCGTT (sugars k3 d10 k3, PS)
target mRNA inhibition (1 µM): 57%

ATAGCAAGCCAACAGA (sugars k3 d10 k3, PS)
target mRNA inhibition (1 µM): 37%

ATAGCCAGTACAGTTC (sugars k3 d10 k3, PS)
target mRNA inhibition (1 µM): 65%

ATATACATCCAAGTAA (sugars k3 d10 k3, PS)
target mRNA inhibition (1 µM): 18%

ATCAAATGTATGTGCT (sugars k3 d10 k3, PS)
target mRNA inhibition (1 µM): 73%

ATCAAGACATTCTAGC (sugars k3 d9 k3 e1, PS)
target mRNA inhibition (1 µM): 52%

ATCAAGACATTCTAGC (sugars k4 m1 d8 k3, PS)
target mRNA inhibition (1 µM): 37%

ATCCAGATCTGCCCTA (sugars k3 d10 k3, PS)
target mRNA inhibition (1 µM): 39%

ATCCATTCTATGCAAG (sugars k3 d10 k3, PS)
target mRNA inhibition (1 µM): 46%

ATCCCGTTCTTGCCCA (sugars k3 d10 k3, PS)
target mRNA inhibition (1 µM): 30%

ATCCTATATACATCCA (sugars k3 d10 k3, PS)
target mRNA inhibition (0.02 µM): 3% | target mRNA inhibition (0.078 µM): 8% | target mRNA inhibition (0.313 µM): 36% | target mRNA inhibition (1 µM): 76% | target mRNA inhibition (1.25 µM): 72% | target mRNA inhibition (5 µM): 92%

ATCCTGTAAACACTTC (sugars k3 d10 k3, PS)
target mRNA inhibition (0.02 µM): 11% | target mRNA inhibition (0.078 µM): 13% | target mRNA inhibition (0.313 µM): 27% | target mRNA inhibition (1 µM): 79% | target mRNA inhibition (1.25 µM): 66% | target mRNA inhibition (5 µM): 87%

ATCCUATATACATCCA (sugars k3 d1 m1 d8 k3, PS)
target mRNA inhibition (1 µM): 64%

ATCTACATGGATCCAA (sugars k3 d10 k3, PS)
target mRNA inhibition (1 µM): 12%

ATCTAGAACACTTGCC (sugars k3 d10 k3, PS)
target mRNA inhibition (1 µM): 27%

ATCTATCAGACTTCTT (sugars k3 d9 k3 e1, PS)
target mRNA inhibition (1 µM): 51%

ATCTCTGGGACCAAGG (sugars k3 d1 m1 d8 k3, PS)
target mRNA inhibition (1 µM): 52%

ATCTTAAGAGAAGGTG (sugars k3 d10 k3, PS)
target mRNA inhibition (1 µM): 43%

ATCTTAAGATACCCAG (sugars k3 d9 k3 e1, PS)
target mRNA inhibition (1 µM): 71%

ATCTTATAAGACTATA (sugars k3 d9 k3 e1, PS)
target mRNA inhibition (1 µM): 53%

ATCTTATAAGACTATA (sugars k3 d10 k3, PS)
target mRNA inhibition (1 µM): 32%

ATCTTATAAGACTATA (sugars kkdddddddddkekek, PS)
target mRNA inhibition (1 µM): 30%

ATGAAGTTAGTATAGT (sugars k3 d1 m1 d8 k3, PS)
target mRNA inhibition (1 µM): 38%

ATGAAGTTAGTATAGT (sugars k3 d9 k3 e1, PS)
target mRNA inhibition (1 µM): 61%

ATGAGAACAATCTCCC (sugars k3 d10 k3, PS)
target mRNA inhibition (0.02 µM): 0% | target mRNA inhibition (0.078 µM): 9% | target mRNA inhibition (0.313 µM): 40% | target mRNA inhibition (1 µM): 65% | target mRNA inhibition (1.25 µM): 64% | target mRNA inhibition (5 µM): 78%

ATGAGATTACCCCTGG (sugars k3 d10 k3, PS)
target mRNA inhibition (1 µM): 62%

ATGAGGTTTTGATACC (sugars k3 d9 k3 e1, PS)
target mRNA inhibition (1 µM): 20%

ATGCAAGATTTACTTC (sugars k3 d10 k3, PS)
target mRNA inhibition (1 µM): 38%

ATGGCTACAGATTGGA (sugars k3 d10 k3, PS)
target mRNA inhibition (1 µM): 72%

ATGGGATGAGGTAAGG (sugars k3 d10 k3, PS)
target mRNA inhibition (1 µM): 46%

ATGGTGATCAGAAGCA (sugars k3 d10 k3, PS)
target mRNA inhibition (0.02 µM): 0% | target mRNA inhibition (0.078 µM): 28% | target mRNA inhibition (0.313 µM): 46% | target mRNA inhibition (1 µM): 85% | target mRNA inhibition (1.25 µM): 80% | target mRNA inhibition (5 µM): 81%

ATGTAAAGTTTGTTAG (sugars k3 d10 k3, PS)
target mRNA inhibition (1 µM): 12%

ATGTAGTGGGAGTCGG (sugars k3 d10 k3, PS)
target mRNA inhibition (1 µM): 72%

ATGTATCTTATAAGAC (sugars k3 d9 k3 e1, PS)
target mRNA inhibition (1 µM): 24%

ATGTCATAAAAATCGC (sugars k3 d10 k3, PS)
target mRNA inhibition (1 µM): 53%

ATGTTAGGACCCAGTC (sugars k3 d10 k3, PS)
target mRNA inhibition (1 µM): 60%

ATGTTGACCTCAAATG (sugars k3 d10 k3, PS)
target mRNA inhibition (1 µM): 0%

ATGTTTATGTAAGCAC (sugars kkdddddddddkekek, PS)
target mRNA inhibition (1 µM): 61%

ATTAAGACAGTTGAGT (sugars k3 d10 k3, PS)
target mRNA inhibition (1 µM): 34%

ATTAAGATGTCCAGGC (sugars k3 d10 k3, PS)
target mRNA inhibition (1 µM): 31%

ATTAAGCTTAGTATAT (sugars k3 d10 k3, PS)
target mRNA inhibition (1 µM): 10%

ATTACTTCTGATGTCC (sugars k3 d10 k3, PS)
target mRNA inhibition (1 µM): 65%

ATTAGATGGTAAGGAG (sugars k3 d10 k3, PS)
target mRNA inhibition (1 µM): 4%

ATTATTCACCACGATT (sugars k3 d10 k3, PS)
target mRNA inhibition (1 µM): 29%

ATTCACATATGTGAAG (sugars k3 d10 k3, PS)
target mRNA inhibition (1 µM): 0%

ATTCTAAACTAGTGGT (sugars k3 d10 k3, PS)
target mRNA inhibition (1 µM): 39%

ATTCTGTGTTCTTGTT (sugars k3 d10 k3, PS)
target mRNA inhibition (1 µM): 67%

ATTCUGTGGCATGGCT (sugars k3 d1 m1 d8 k3, PS)
target mRNA inhibition (1 µM): 59%

ATTGAGATGACAGTGG (sugars k3 d10 k3, PS)
target mRNA inhibition (0.02 µM): 21% | target mRNA inhibition (0.078 µM): 40% | target mRNA inhibition (0.313 µM): 64% | target mRNA inhibition (1 µM): 70% | target mRNA inhibition (1.25 µM): 77% | target mRNA inhibition (5 µM): 91%

ATTGCATAAGAGCCAA (sugars k3 d10 k3, PS)
target mRNA inhibition (1 µM): 67%

ATTGTCTAAACATCTC (sugars kkdddddddddkekek, PS)
target mRNA inhibition (1 µM): 62%

ATTGUCTAAACATCTC (sugars k3 d1 m1 d8 k3, PS)
target mRNA inhibition (1 µM): 73%

ATTTAGCATTGCCTGT (sugars k3 d10 k3, PS)
target mRNA inhibition (1 µM): 10%

CAAAAGACTTTGAGAC (sugars k3 d10 k3, PS)
target mRNA inhibition (1 µM): 22%

CAAAAGACTTTGAGAC (sugars kkdddddddddkekek, PS)
target mRNA inhibition (1 µM): 32%

CAAAATGGTGGCGAGG (sugars k3 d10 k3, PS)
target mRNA inhibition (1 µM): 10%

CAAAGATCTGGCCAGT (sugars k3 d10 k3, PS)
target mRNA inhibition (1 µM): 1%

CAAATTTGCTGGAACT (sugars k3 d10 k3, PS)
target mRNA inhibition (1 µM): 39%

CAACCAAACTTCCAGC (sugars k3 d10 k3, PS)
target mRNA inhibition (1 µM): 72%

CAAGACAGACTGTTGA (sugars k3 d10 k3, PS)
target mRNA inhibition (1 µM): 39%

CAAGAGGATAGTCCAT (sugars k3 d10 k3, PS)
target mRNA inhibition (1 µM): 58%

CAAGATTAGTCTTGAT (sugars k3 d10 k3, PS)
target mRNA inhibition (1 µM): 27%

CAAGGAGTACTTCACA (sugars k3 d10 k3, PS)
target mRNA inhibition (1 µM): 66%

CAAGGAGTATGACAAC (sugars k3 d10 k3, PS)
target mRNA inhibition (1 µM): 6%

CAAGTGACAGCATTGA (sugars k3 d10 k3, PS)
target mRNA inhibition (1 µM): 48%

CAAGTTTGTTCATAGT (sugars k3 d10 k3, PS)
target mRNA inhibition (1 µM): 78%

CAATCTAGCAACCTCT (sugars k3 d10 k3, PS)
target mRNA inhibition (1 µM): 51%

CAATGGTTGATAGTTT (sugars k3 d10 k3, PS)
target mRNA inhibition (1 µM): 47%

CAATTATATGAGGTCT (sugars k3 d10 k3, PS)
target mRNA inhibition (1 µM): 36%

CAATTGCTCTATAGAT (sugars k3 d10 k3, PS)
target mRNA inhibition (1 µM): 15%

CACAAGTAAGGTAAAG (sugars k3 d1 m1 d8 k3, PS)
target mRNA inhibition (1 µM): 43%

CACAATCTAGCAACCT (sugars k3 d10 k3, PS)
target mRNA inhibition (1 µM): 40%

CACACCGCGCTTATTA (sugars k3 d10 k3, PS)
target mRNA inhibition (1 µM): 11%

CACATATGTGAAGAGC (sugars kkdddddddddkekek, PS)
target mRNA inhibition (1 µM): 53%

CACCAACGACTCCAAG (sugars k3 d10 k3, PS)
target mRNA inhibition (1 µM): 16%

CACCTGATTTAGAGAG (sugars k3 d10 k3, PS)
target mRNA inhibition (1 µM): 11%

CACCTTATTAATATCC (sugars k3 d10 k3, PS)
target mRNA inhibition (1 µM): 34%

CACGAAGCCTGAATGC (sugars k3 d10 k3, PS)
target mRNA inhibition (1 µM): 24%

CACTATCAGAACAGTT (sugars k3 d10 k3, PS)
target mRNA inhibition (1 µM): 24%

CACTTTCACTGGGTGT (sugars k3 d10 k3, PS)
target mRNA inhibition (1 µM): 7%

CAGAAAGTTCATTCGA (sugars k3 d10 k3, PS)
target mRNA inhibition (1 µM): 67%

CAGAAGGATTTCTAGG (sugars k3 d10 k3, PS)
target mRNA inhibition (1 µM): 43%

CAGACCTATGAAAAAC (sugars k3 d10 k3, PS)
target mRNA inhibition (1 µM): 26%

CAGAGACATGAGGTTT (sugars kkdddddddddkekek, PS)
target mRNA inhibition (1 µM): 61%

CAGATTGGAATGCTAC (sugars kkdddddddddkekek, PS)
target mRNA inhibition (1 µM): 57%

CAGCATCAAGACATTC (sugars k3 d1 m1 d8 k3, PS)
target mRNA inhibition (1 µM): 52%

CAGCATTGATTCGAAA (sugars kkdddddddddkekek, PS)
target mRNA inhibition (1 µM): 58%

CAGGAATGCATAAGAG (sugars k3 d10 k3, PS)
target mRNA inhibition (1 µM): 33%

CAGGUTGAGATAAAGC (sugars k3 d1 m1 d8 k3, PS)
target mRNA inhibition (1 µM): 55%

CAGTACAGTTCCTTTT (sugars k3 d10 k3, PS)
target mRNA inhibition (1 µM): 43%

CAGTAGGCAGTTTCTC (sugars k3 d10 k3, PS)
target mRNA inhibition (0.02 µM): 0% | target mRNA inhibition (0.078 µM): 0% | target mRNA inhibition (0.313 µM): 30% | target mRNA inhibition (1 µM): 72% and 50% | target mRNA inhibition (1.25 µM): 55% | target mRNA inhibition (5 µM): 86%

CAGTCTTAAACCTTCC (sugars k3 d10 k3, PS)
target mRNA inhibition (1 µM): 70%
